Test results published in patent US9067914B1, “Tropomyosin-related kinase (TRK) inhibitors” (Genzyme Corporation, priority 2013, dated 2015).

Assays:
[1] = molecular target: TrkB (Homo sapiens (Human), UniProt Q16620); experiment: TrkB activity, off-chip mobility shift assay (LabChip 3000); format: biochemical; details: 70 μM ATP (ATP Km); n/d = none detected
From the text: (§1) Reagents and consumables were purchased from Sigma Aldrich, Carna Biosciences, or Caliper Life Sciences. All assay reaction conditions for IC50 determinations were within the linear range with respect to time and enzyme concentration. […] The LabChip 3000 separates and measures the fluorescent signal of fluorescein labeled peptide substrate and fluorescein labeled peptide product present in each well. Results are expressed as percent conversion by measuring peak height for both the substrate and product and dividing the product peak height by the sum of peak heights for both substrate and product.

[2] = molecular target: TrkA (Homo sapiens (Human), UniProt P04629); experiment: TrkA activity, off-chip mobility shift assay (LabChip 3000); format: biochemical; details: 55 μM ATP (ATP Km); n/d = none detected
TrkA, sequence (P04629 33-796): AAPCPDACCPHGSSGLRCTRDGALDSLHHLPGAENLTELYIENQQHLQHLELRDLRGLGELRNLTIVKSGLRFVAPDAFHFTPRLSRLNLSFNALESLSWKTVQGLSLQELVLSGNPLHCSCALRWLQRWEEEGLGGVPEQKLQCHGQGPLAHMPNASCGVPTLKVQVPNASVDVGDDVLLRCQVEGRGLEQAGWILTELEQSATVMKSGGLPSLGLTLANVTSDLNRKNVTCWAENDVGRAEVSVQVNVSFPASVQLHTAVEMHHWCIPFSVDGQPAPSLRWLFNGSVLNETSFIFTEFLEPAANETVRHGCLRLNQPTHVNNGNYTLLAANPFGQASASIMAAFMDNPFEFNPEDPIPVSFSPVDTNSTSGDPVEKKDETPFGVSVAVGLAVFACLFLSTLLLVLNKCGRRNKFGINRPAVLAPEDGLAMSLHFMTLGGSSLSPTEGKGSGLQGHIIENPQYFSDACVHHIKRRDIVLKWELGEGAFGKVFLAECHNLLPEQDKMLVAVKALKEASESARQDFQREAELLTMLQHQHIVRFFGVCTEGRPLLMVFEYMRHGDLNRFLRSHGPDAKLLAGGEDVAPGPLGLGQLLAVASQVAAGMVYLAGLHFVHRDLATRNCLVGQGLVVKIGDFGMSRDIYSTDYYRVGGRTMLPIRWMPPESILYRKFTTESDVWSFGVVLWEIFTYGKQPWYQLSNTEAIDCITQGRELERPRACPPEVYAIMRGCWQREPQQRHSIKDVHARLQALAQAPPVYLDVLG
From the text: as §1

TrkB, sequence (Q16620 32-822): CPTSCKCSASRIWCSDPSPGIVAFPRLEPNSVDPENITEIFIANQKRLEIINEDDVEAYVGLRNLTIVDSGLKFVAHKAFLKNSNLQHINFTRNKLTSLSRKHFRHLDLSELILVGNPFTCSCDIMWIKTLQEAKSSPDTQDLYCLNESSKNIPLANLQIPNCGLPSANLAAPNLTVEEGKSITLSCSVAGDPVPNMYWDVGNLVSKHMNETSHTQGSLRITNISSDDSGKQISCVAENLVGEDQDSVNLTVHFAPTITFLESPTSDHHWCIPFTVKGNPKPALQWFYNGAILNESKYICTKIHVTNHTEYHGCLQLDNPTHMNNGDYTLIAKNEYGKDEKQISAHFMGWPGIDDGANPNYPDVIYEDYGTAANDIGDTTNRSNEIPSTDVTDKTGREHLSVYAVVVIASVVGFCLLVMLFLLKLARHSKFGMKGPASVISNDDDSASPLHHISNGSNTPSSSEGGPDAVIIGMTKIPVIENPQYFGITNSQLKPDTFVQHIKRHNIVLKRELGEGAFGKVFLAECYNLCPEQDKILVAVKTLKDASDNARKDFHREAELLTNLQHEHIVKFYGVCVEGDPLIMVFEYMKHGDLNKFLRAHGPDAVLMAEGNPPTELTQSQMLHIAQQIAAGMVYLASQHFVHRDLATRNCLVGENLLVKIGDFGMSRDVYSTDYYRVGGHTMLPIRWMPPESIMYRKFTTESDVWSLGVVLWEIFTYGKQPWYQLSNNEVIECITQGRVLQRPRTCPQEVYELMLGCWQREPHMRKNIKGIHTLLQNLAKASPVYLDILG

| SMILES | IC50 [1] | IC50 [2] |
| --- | --- | --- |
| COc1ccc(COc2ccc(Cn3c(N)nc4cc(-c5cnn(C)c5)cnc43)cc2OC)cn1 [Ex. 3-35-1, 3-(3-methoxy-4-((6-methoxypyridin-3-yl)methoxy)benzyl)-6-(1-methyl-1H-pyrazol-4-yl)-3H-imidazo[4,5-b]pyridin-2-amine] | 0.3 nM | 0.6 nM |
| COc1cc(Cn2c(N)nc3cc(-c4cnn(C)c4)cnc32)ccc1OCc1ccc(C(F)(F)F)nc1 [Ex. 3-35-2, 3-(3-methoxy-4-((6-(trifluoromethyl)pyridin-3-yl)methoxy)benzyl)-6-(1-methyl-1H-pyrazol-4-yl)-3H-imidazo[4,5-b]pyridin-2-amine] | 0.2 nM | 0.2 nM |
| COc1cc(Cn2c(N)nc3cc(-c4cnn(C)c4)cnc32)ccc1OCc1ccc(C(F)(F)F)cc1 [Ex. 3-35-3, 3-(3-methoxy-4-((4-(trifluoromethyl)benzyl)oxy)benzyl)-6-(1-methyl-1H-pyrazol-4-yl)-3H-imidazo[4,5-b]pyridin-2-amine] | 0.3 nM | 0.2 nM |
| COc1cc(Cn2c(N)nc3cc(-c4cnn(C)c4)cnc32)ccc1OCc1ccc(C2CC2)nc1 [Ex. 3-35-4, 3-(4-((6-cyclopropylpyridin-3-yl)methoxy)-3-methoxybenzyl)-6-(1-methyl-1H-pyrazol-4-yl)-3H-imidazo[4,5-b]pyridin-2-amine] | 0.2 nM | 0.2 nM |
| COc1cc(Cn2c(N)nc3cc(-c4cnn(C)c4)cnc32)ccc1OCc1csc(C)n1 [Ex. 3-35-5, 3-(3-methoxy-4-((2-methylthiazol-4-yl)methoxy)benzyl)-6-(1-methyl-1H-pyrazol-4-yl)-3H-imidazo[4,5-b]pyridin-2-amine] | 0.2 nM | 0.5 nM |
| COc1ccc(COc2ccc(Cn3c(N)nc4cc(-c5ccc(F)cc5)cnc43)cc2OC)cn1 [Ex. 3-37-1, 6-(4-fluorophenyl)-3-(3-methoxy-4-((6-methoxypyridin-3-yl)methoxy)benzyl)-3H-imidazo[4,5-b]pyridin-2-amine] | 4 nM | 9 nM |
| COc1ccc(COc2ccc(Cn3c(N)nc4cc(-c5ccn(C)n5)cnc43)cc2OC)cn1 [Ex. 3-37-2, 3-(3-methoxy-4-((6-methoxypyridin-3-yl)methoxy)benzyl)-6-(1-methyl-1H-pyrazol-3-yl)-3H-imidazo[4,5-b]pyridin-2-amine] | 2 nM | 3 nM |
| COc1ccc(COc2ccc(Cn3c(N)nc4cc(-c5cncnc5)cnc43)cc2OC)cn1 [Ex. 3-37-3, 3-(3-methoxy-4-((6-methoxypyridin-3-yl)methoxy)benzyl)-6-(pyrimidin-5-yl)-3H-imidazo[4,5-b]pyridin-2-amine] | 16 nM | 51 nM |
| COc1ccc(COc2ccc(Cn3c(N)nc4cc(-c5c(C)nn(C)c5C)cnc43)cc2OC)cn1 [Ex. 3-37-4, 3-(3-methoxy-4-((6-methoxypyridin-3-yl)methoxy)benzyl)-6-(1,3,5-trimethyl-1H-pyrazol-4-yl)-3H-imidazo[4,5-b]pyridin-2-amine] | 13 nM | 14 nM |
| COc1ccc(COc2ccc(Cn3c(N)nc4cc(-c5ccncc5)cnc43)cc2OC)cn1 [Ex. 3-37-5, 3-(3-methoxy-4-((6-methoxypyridin-3-yl)methoxy)benzyl)-6-(pyridin-4-yl)-3H-imidazo[4,5-b]pyridin-2-amine] | 0.7 nM | 2 nM |
| COc1ccc(COc2ccc(Cn3c(N)nc4cc(-c5cccnc5)cnc43)cc2OC)cn1 [Ex. 3-37-6, 3-(3-methoxy-4-((6-methoxypyridin-3-yl)methoxy)benzyl)-6-(pyridin-3-yl)-3H-imidazo[4,5-b]pyridin-2-amine] | 2 nM | 5 nM |
| COc1cc(Cn2c(N)nc3cc(-c4cnn(C)c4)cnc32)ccc1OCc1ccc(OC(F)(F)F)cc1 [Ex. 3-40-1, 3-(3-methoxy-4-((4-(trifluoromethoxy)benzyl)oxy)benzyl)-6-(1-methyl-1H-pyrazol-4-yl)-3H-imidazo[4,5-b]pyridin-2-amine] | 0.2 nM | 0.2 nM |
| COc1cc(Cn2c(N)nc3cc(-c4cnn(C)c4)cnc32)ccc1OCc1ccc(SC(F)(F)F)cc1 [Ex. 3-40-2, 3-(3-methoxy-4-((4-((trifluoromethyl)thio)benzyl)oxy)benzyl)-6-(1-methyl-1H-pyrazol-4-yl)-3H-imidazo[4,5-b]pyridin-2-amine] | 0.6 nM | 0.2 nM |
| COc1cc(Cn2c(N)nc3cc(-c4cnn(C)c4)cnc32)ccc1OCc1ccc(C(C)C)nc1 [Ex. 3-40-3, 3-(4-((6-isopropylpyridin-3-yl)methoxy)-3-methoxybenzyl)-6-(1-methyl-1H-pyrazol-4-yl)-3H-imidazo[4,5-b]pyridin-2-amine] | 0.2 nM | 0.2 nM |
| COc1cc(Cn2c(N)nc3cc(-c4cnn(C)c4)cnc32)ccc1OCc1ccc(CC(F)(F)F)cc1 [Ex. 3-40-4, 3-(3-methoxy-4-((4-(2,2,2-trifluoroethyl)benzyl)oxy)benzyl)-6-(1-methyl-1H-pyrazol-4-yl)-3H-imidazo[4,5-b]pyridin-2-amine] | 0.3 nM | 0.2 nM |
| COc1cc(C(C)n2cnc3cc(-c4cnn(C)c4)ccc32)ccc1OCc1ccc(C(F)(F)F)nc1 (stereo not shown) [Ex. 3-48-1, 1-(1-(3-methoxy-4-((6-(trifluoromethyl)pyridin-3-yl)methoxy)phenyl)ethyl)-5-(1-methyl-1H-pyrazol-4-yl)-1H-benzo[d]imidazole] | 14 nM | 102 nM |

Now from value to compound:

| IC50 [1] | IC50 [2] | SMILES |
| --- | --- | --- |
| 889 nM | 1480 nM | COc1ccc(COc2ccc(Cn3cnc4cc(C5=CC6(C)CCCN5C6)ccc43)cc2OC)cn1 (stereo not shown) [Ex. 3-31, 1-(3-methoxy-4-((6-methoxypyridin-3-yl)methoxy)benzyl)-5-(5-methyl-1-azabicyclo[3.2.1]oct-6-en-7-yl)-1H-benzo[d]imidazole] |
| 150 nM | 360 nM | COc1ccc(COc2ccc(Cn3cnc4cc(C5=CC6(O)CCCN5C6)cnc43)cc2OC)cn1 (stereo not shown) [Ex. 3-32, 7-(3-(3-methoxy-4-((6-methoxypyridin-3-yl)methoxy)benzyl)-3H-imidazo[4,5-b]pyridin-6-yl)-1-azabicyclo[3.2.1]oct-6-en-5-ol] |
| 372 nM | 1160 nM | COc1ccc(COc2ccc(Cn3cnc4cc(C5=CC6(O)CCCN5C6)ccc43)cc2OC)cn1 (stereo not shown) [Ex. 3-33, 7-(1-(3-Methoxy-4-((6-methoxypyridin-3-yl)methoxy)benzyl)-1H-benzo[d]imidazol-5-yl)-1-azabicyclo[3.2.1]oct-6-en-5-ol] |
| 4 nM | 6 nM | COc1ccc(COc2ccc(Cn3c(N)nc4cc(-c5ccccc5)cnc43)cc2OC)cn1 [Ex. 3-36, 3-(3-methoxy-4-((6-methoxypyridin-3-yl)methoxy)benzyl)-6-phenyl-3H-imidazo[4,5-b]pyridin-2-amine] |
| 2 nM | 4 nM | COc1ccc(COc2ccc(Cn3c(N)nc4cc(-c5ccccn5)cnc43)cc2OC)cn1 [Ex. 3-38, 3-(3-methoxy-4-((6-methoxypyridin-3-yl)methoxy)benzyl)-6-(pyridin-2-yl)-3H-imidazo[4,5-b]pyridin-2-amine] |
| 0.6 nM | 0.3 nM | COc1cc(Cn2c(N)nc3cc(-c4cnn(C)c4)cnc32)ccc1OCc1ccc(C(F)(F)C(F)(F)F)cc1 [Ex. 3-39, 3-(3-methoxy-4-((4-(perfluoroethyl)benzyl)oxy)benzyl)-6-(1-methyl-1H-pyrazol-4-yl)-3H-imidazo[4,5-b]pyridin-2-amine] |
| 80 nM | 65 nM | COc1ccc(COc2ccc(Cn3c(N)nc4cc(C#CC5CCCCC5)cnc43)cc2OC)cn1 [Ex. 3-41, 6-(cyclohexylethynyl)-3-(3-methoxy-4-((6-methoxypyridin-3-yl)methoxy)benzyl)-3H-imidazo[4,5-b]pyridin-2-amine] |
| 3 nM | 7 nM | COc1ccc(COc2ccc(Cn3c(N)nc4cc(C#CCCO)cnc43)cc2OC)cn1 [Ex. 3-42, 4-(2-amino-3-(3-methoxy-4-((6-methoxypyridin-3-yl)methoxy)benzyl)-3H-imidazo[4,5-b]pyridin-6-yl)but-3-yn-1-ol] |
| 51 nM | 58 nM | COc1ccc(C(Oc2ccc(Cn3c(N)nc4cc(-c5cnn(C)c5)cnc43)cc2OC)C2CC2)cn1 (stereo not shown) [Ex. 3-43, 3-(4-(cyclopropyl(6-methoxypyridin-3-yl)methoxy)-3-methoxybenzyl)-6-(1-methyl-1H-pyrazol-4-yl)-3H-imidazo[4,5-b]pyridin-2-amine] |
| 41 nM | 39 nM | COc1cc2c(cn1)C(Oc1ccc(Cn3c(N)nc4cc(-c5cnn(C)c5)cnc43)cc1OC)CCC2 (stereo not shown) [Ex. 3-44, 3-(3-methoxy-4-((3-methoxy-5,6,7,8-tetrahydroisoquinolin-8-yl)oxy)benzyl)-6-(1-methyl-1H-pyrazol-4-yl)-3H-imidazo[4,5-b]pyridin-2-amine] |
| 1 nM | 3 nM | COc1ccc(COc2ccc(C(C)n3c(N)nc4cc(-c5cnn(C)c5)ccc43)cc2OC)cn1 (stereo not shown) [Ex. 3-45, 1-(1-(3-methoxy-4-((6-methoxypyridin-3-yl)methoxy)phenyl)ethyl)-5-(1-methyl-1H-pyrazol-4-yl)-1H-benzo[d]imidazol-2-amine] |
| 37 nM | 85 nM | COc1ccc(COc2ccc(C(C)n3c(N)nc4cc(-c5ccc(F)cc5)ccc43)cc2OC)cn1 (stereo not shown) [Ex. 3-46, 5-(4-fluorophenyl)-1-(1-(3-methoxy-4-((6-methoxypyridin-3-yl)methoxy)phenyl)ethyl)-1H-benzo[d]imidazol-2-amine] |
| 427 nM | 1240 nM | COc1cc(C(C)n2cnc3cc(-c4ccc(F)cc4)ccc32)ccc1OCc1ccc(C(F)(F)F)nc1 (stereo not shown) [Ex. 3-47, 5-(4-fluorophenyl)-1-(1-(3-methoxy-4-((6-(trifluoromethyl)pyridin-3-yl)methoxy)phenyl)ethyl)-1H-benzo[d]imidazole] |
